{"source": "patent US12686664B2", "about": "“SOCE inhibitors and therapeutic uses thereof” (Institut National de la Santé et de la Recherche Médicale …, priority 2020, dated 2026)", "format_in_all_cases": "cell-based", "key": {"[1]": {"test_system": "store-operated Ca^2+ entry in PLP-B lymphocytes", "experiment": "Store-operated Ca2+ entry after thapsigargin depletion of ER Ca2+ stores in PLP-B lymphocytes", "settings": "for inhibition at 0.1 µM / inhibition at 1 µM / inhibition at 10 µM / inhibition at 50 µM / inhibition at 100 µM: PLP-B lymphocytes, % of inhibition (−) or activation", "protocol": "(§1) The effects of the molecules developed were tested on PLP-B lymphocytes. Store-operated Ca^2+ entry was induced by depletion of Endoplasmic Reticulum Ca^2+ stores (ER Ca^2+ stores) with thapsigargin (Tg) in a Ca^2+-free medium and measured following the addition of 1.8 mM of CaCl2) in the extracellular medium. The results are compared to the results obtained for known SOCE inhibitors SKF-96365, GSK-7975A, Synta 66."}, "[2]": {"test_system": "store-operated Ca^2+ entry in HEK 293", "experiment": "Store-operated Ca2+ entry in HEK 293 cell line", "settings": "for Effect on amplitude of SOCE peak: % of inhibition (−) or activation", "protocol": "as §1\n(§2) Then, effects of the molecule that gave the best results in this test (i.e., molecule 6αa) were assessed in two cancer cell lines, namely: HEK 293 and HEK 651 HS1 tumor cell lines."}, "[3]": {"test_system": "JOK cells", "experiment": "Migration of JOK cells through HUVEC in transwells", "settings": "5 or 20 μM", "protocol": "Migration Protocol. Migration chambers (transwells) (Transwell 5.0 m polycarbonate membrane Costar) were coated overnight (37° C., 5% CO2) with 100 μL of fibronectine solution containing BSA (1 mg/ml) and LHC Basal Medium. Primary HUmbilical Vein Endothelial Cells (HUVEC) were seeded in each transwell (100 000/well) and cultured for 24 hours (37° C., 5% CO2). To evaluate B cell migration, JOK cells were added (300 000/well) to each transwell upper chamber containing RPMI 1640 medium (BioWest) containing 0.5% BSA and SDF1 (200 ng/ml) was added in the bottom chamber. Cells were cultures in the presence or absence of a test compound (GSK-7975-A, SKF-93365 and 6αa) or solvent. After 24 hours (37° C., 5% CO2), migrated cells were collected in the bottom chambers and counted by flow cytometry. The percentages of migration were calculated for each experimental collection."}, "[4]": {"test_system": "HUVEC cells", "experiment": "HUVEC cell death (Annexin/Propidium Iodide, flow cytometry)", "settings": "HUVEC (FIG. 8)", "protocol": "FIG. 8. In vitro Effects of 6αa, GSK-7975-A and SKF-93365 on HUVEC Cell Death. […] Cell death was analyzed by flow cytometry following Annexin/Propidium Iodide labeling. Percentages of living cells, necrotic cells and apoptotic cells submitted to GSK-7975A (A), SKF-93365 (B), and 6αa (DAD 3-473) (C) treatment were normalized to the DMSO treatment conditions. Histograms present the amounts of apoptotic cells (annexin/PI positive cells) detected in each experimental condition after treatment with GSK-7975A (D), SKF-93365 (E), and 6αa (DAD 3-473) (F). Data are expressed as mean±SEM of n observations (n=2). Data are analyzed with non parametric Mann Withney analysis, *P<0.05, **P<0.01 and ***P<0.001."}, "[5]": {"test_system": "store-operated Ca^2+ entry in HEK 651 HS1", "experiment": "Store-operated Ca2+ entry in HEK 651 HS1 cell line", "settings": "for Effect on amplitude of SOCE peak: % of inhibition (−) or activation", "protocol": "as §1, §2"}, "[6]": {"test_system": "SOCE in JOK B cells", "experiment": "Intracellular calcium levels / SOCE in JOK B cells (Fura-2AM, FlexStation 3)", "protocol": "Intracellular calcium levels were monitored at 37° C. using the FlexStation 3™ (Molecular Devices, Berkshire, UK), a fluorescence plate reader measuring time-resolved intracellular Ca^2+ concentration in a 96-well format with cells loaded with the dual-wavelength fluorescent calcium-sensitive dye Fura-2AM.\nIntracellular Ca^2+ stores were depleted with 2 μM Thapsigargin (an inhibitor of ER SERCA pumps) under Ca^2+-free conditions to determine the magnitude of intracellular Ca^2+ release. Next, the cells were returned to Ca^2+-containing Hepes-buffered solution to measure SOCE. The magnitude of SOCE was estimated as the maximal values of normalized fluorescence ratio following Ca^2+ re-addition."}, "[7]": {"test_system": "PANC-1 cells", "experiment": "PANC-1 cell proliferation (Cell Titer kit)", "settings": "5 and 20 μM, 24 hours, to a greater extent than GSK-7975A and SKF-93365", "protocol": "Analysis of Cell Proliferation. For PANC-1 cell proliferation and cell cytotoxicity measurements, […] were seeded in 96 well-plates in 100 μL of DMEM medium. Cells were incubated for 24 hours at 37° C. with 3 different SOCE inhibitors (GSK-7975-A, SKF-93365 and 6αa) at 2 different concentrations (5 and 20 μM) compared to DMSO and untreated cells. Cell proliferation was evaluated using the Cell Titer kit proliferation assay (Promega). Cytotoxicity was evaluated using the Cell Tox green cytotoxicity assay (Promega). All the kits were used following manufacturer recommendations and using a plate reader."}, "[8]": {"test_system": "JOK cells", "experiment": "JOK cell cycle analysis (PI staining, flow cytometry)", "protocol": "Cell Cycle Analysis. JOK cells were incubated with or without test compounds (GSK-7975-A, SKF-93365 and 6αa) for 48 hours and then washed with cold PBS and fixed with 70% ethanol for 30 minutes at room temperature. Cell cycle was analyzed using propidium iodide (PI). Cell-cycle distribution was determined by PI-staining using flow cytometry and analyzed by Kaluza 1.3."}, "[9]": {"test_system": "JOK cells", "experiment": "JOK cell viability and apoptosis assays (LIVE/DEAD, Annexin V-FITC/PI)", "protocol": "Cell Viability Assays. JOK cells were treated with test compounds (GSK-7975-A, SKF-93365 and 6αa) or solvent for 48 hours. JOK cells viability was then assessed using LIVE/DEAD cell viability assays kit (Abcam). Differentially labeled live and dead cells with fluorescent dyes are analyzed by flow cytometry.\nApoptosis Assay. Apoptosis of JOK cells were determined by Annexin V-FITC/PI staining (Biolegend) using flow cytometry. The percentage of annexin V-FITC and propidium iodide-[…] cells were assessed using Kaluza 1.3."}, "[10]": {"test_system": "JOK cells", "experiment": "JOK cell proliferation assay", "protocol": "Cell Proliferation Assays. Cultured JOK cells were seeded in 96-well culture plates with or without inhibitors. After 48 hours, cell proliferation was assessed using WST-8 assay (Sigma Aldrich). The absorbance was read at 450 nm on a plate reader."}, "[11]": {"settings": "Lymphocyte, DMSO control 100%, read-out: Effect on amplitude of SOCE Peak"}, "[12]": {"settings": "Lymphocyte, thapsigargin (Tg) peak, read-out: Effect on amplitude of Tg Peak"}}, "note": "pIC50: −log10 of the molar value. Like-named read-outs stand apart in the source and are kept apart here."}
{"smiles": "COc1ccc(CCOc2ccc(CCn3cnc4ccccc43)cc2)cc1", "note": "[6αa DAD 3-473, 1-[4-(4-Methoxyphenethoxy)phenethyl]-1H-benzo[d]imidazole]", "values": [{"measurement": "inhibition at 0.1 µM", "setting": "[1]; [11]", "value": 3, "unit": "%"}, {"measurement": "inhibition at 0.1 µM", "setting": "[1]; [12]", "value": -5, "unit": "%"}, {"measurement": "inhibition at 1 µM", "setting": "[1]; [11]", "value": -2, "unit": "%"}, {"measurement": "inhibition at 1 µM", "setting": "[1]; [12]", "value": -7, "unit": "%"}, {"measurement": "inhibition at 10 µM", "setting": "[1]; [11]", "value": 24, "unit": "%"}, {"measurement": "inhibition at 10 µM", "setting": "[1]; [12]", "value": 5, "unit": "%"}, {"measurement": "inhibition at 50 µM", "setting": "[1]; [11]", "value": 79, "unit": "%"}, {"measurement": "inhibition at 50 µM", "setting": "[1]; [12]", "value": 5, "unit": "%"}, {"measurement": "inhibition at 100 µM", "setting": "[1]; [11]", "value": 81, "unit": "%"}, {"measurement": "inhibition at 100 µM", "setting": "[1]; [12]", "value": 2, "unit": "%"}, {"measurement": "pIC50", "setting": "[1]; Lymphocyte, SOCE in PLP-B lymphocytes, average of three assays, ±0.5 μM", "value": 4.81}, {"measurement": "effectiveness as modulator that inhibits SOCE without inhibiting Ca2+ release from ER stores", "setting": "[1]; comparison of the series tested", "value": "best candidate"}, {"measurement": "Effect on amplitude of SOCE peak", "setting": "[2]; 1 μM", "value": 8, "unit": "%"}, {"measurement": "Effect on amplitude of SOCE peak", "setting": "[2]; 5 μM", "value": "−15", "unit": "%"}, {"measurement": "Effect on amplitude of SOCE peak", "setting": "[2]; 10 μM", "value": "−73", "unit": "%"}, {"measurement": "Effect on amplitude of SOCE peak", "setting": "[2]; 50 μM", "value": "−91", "unit": "%"}, {"measurement": "pIC50", "setting": "[2]; Homo sapiens, HEK293, average of three assays, ±0.5 μM", "value": 5.29}, {"measurement": "transendothelial migration through HUVEC of JOK cells", "setting": "[3]", "value": "does significantly inhibit"}, {"measurement": "death of HUVEC cells", "setting": "[4]", "value": "does not induce death"}, {"measurement": "apoptosis or necrosis of cells", "setting": "[4]; 5 or 20 μM, treated for 48 hours", "value": "do not induce apoptosis or necrosis"}, {"measurement": "Effect on amplitude of SOCE peak", "setting": "[5]; 5 μM", "value": "−5", "unit": "%"}, {"measurement": "Effect on amplitude of SOCE peak", "setting": "[5]; 10 μM", "value": "−35", "unit": "%"}, {"measurement": "Effect on amplitude of SOCE peak", "setting": "[5]; 50 μM", "value": "−86", "unit": "%"}, {"measurement": "pIC50", "setting": "[5]; average of three assays, ±0.5 μM", "value": 4.60}, {"measurement": "amplitude of Ca2+ release from the endoplasmic stores", "setting": "[6]", "value": "not found to be significantly affected"}, {"measurement": "amplitude of SOCE", "setting": "[6]; 5 and 20 μM, compared to control, irrespective of incubation time (5, 15, 30 minutes, 1 hour)", "value": "significantly reduces"}, {"measurement": "PANC-1 proliferation", "setting": "[7]", "value": "significantly reduces"}, {"measurement": "cell cycle", "setting": "[8]", "value": "affects cell cycle"}, {"measurement": "death of B cells", "setting": "[9]; JOK B cells (FIG. 7)", "value": "does not induce death"}, {"measurement": "apoptosis or necrosis of cells", "setting": "[9]; JOK B cells (FIG. 7), 5 or 20 μM, treated for 48 hours", "value": "do not induce apoptosis or necrosis"}, {"measurement": "cell survival", "setting": "[9]; JOK cells", "value": "without significant reduction"}, {"measurement": "JOK proliferation", "setting": "[10]", "value": "significantly reduces"}]}
